The source of these data is patent US5583221A, “Substituted fused and bridged bicyclic compounds as therapeutic agents” (Eli Lilly and Company, priority 1995, dated 1996).

Structures can show the parent of a compound that is named as a salt.

One may read the IC50 as the concentration that gives 50% inhibition.

Data set [1] in a line: water solubility noted during work-up. Type of data set: physicochemical. As to conditions: observation during HPLC fraction work-up. As to the method:
A solution of 8-exo-[4-(2-carbophenylmethoxy-6-phenylmethoxybenzoyl)-3,5-bis(phenylmethoxy)benzoyloxy]-9-endo-(4-phenylmethoxybenzamido)tricyclo[5.2.1.0 (2,6)]decane (0.33 g, 0.32 mmol) in 6:1 ethanol/ethyl acetate (35 mL) in a 500 mL Parr bottle was treated with trifluoroacetic acid (0.15 mL) and purged with nitrogen. Pearlman's catalyst (150 mg) was added, and the vessel was charged with hydrogen (50 psi) and shaken on a Parr apparatus for 18 h. The bottle was carefully evacuated of hydrogen and the solution was filtered through Celite®, then the filter cake was washed with ethanol, but not allowed to dry. The filtrate was concentrated in vacuo to a foamy yellow solid, which was dissolved in DMF (0.8 mL) and loaded onto HPLC; conditions: A- 0.1% TFA/5% CH3 CN/H2 O, B- CH3 CN, 100% A to 100% B over one h, 25 mL/min, 41×250 mm C18 column. […] (dec). Rf (2:1 methylene chloride/methanol on silica) 0.50; IR (KBr) 1703, 1635, 1608 cm^-1; ^1 H NMR (d6 -DMSO) d 11.66 (s, 2H), 9.97 (br s, 1H), 9.88 (s, 1H), 8.35 (d, 1H, J=7 Hz), 7.75 (d, 2H, J=9 Hz), 7.38 (d, 1H, J=8 Hz), 7.28 (t, 1H, J=8 Hz), 7.06 (d, 1H, J=8 Hz), 6.83 (s, 2H), 6.79 (d, 2H, J=9 Hz), 4.83 (d, 1H, J=2.5 Hz), 4.11 (m, 1H), 2.25 (d, 1H, J=4 Hz), 2.10-2.20 (m, 1H), 2.07 (br s, 2H), 1.60-2.00 (m, 3H), 1.48 (br s, 2H), 1.10-1.30 (m, 1H), 0.90-1.10 (m, 2H); mass spectrum (FAB): m/z 588. […]

In data set [2] the test system is K562 cells. The data set is described as follows: Bleb assay in K562 cells. Type of data set: cell-based. As to conditions: Homo sapiens, blebs on the cell surface, read-out: IC50 of Compounds in Cells, BLEB. On the procedure: (§1) Table 1 also includes data from testing in a cellular assay known as the "Bleb" assay. In the Bleb assay K562 cells, a human chronic myeloid leukemia cell line, are treated with compound and scored for the appearance of morphologic changes referred to as blebs on the cell surface. […] H. Osada et al., (1988) 41:7, 925.

A further data set relates to NEUTROPHILS
The data set is described as follows: neutrophil superoxide anion release. Type of data set: cell-based. To be noted: read-out: IC50 of Compounds in Cells, NEUTROPHILS
As to the method: (§2) To investigate the effect that Formula I compounds have on cell growth and activity, assays are performed such as to determine growth inhibition of cultured tumor cells and cultured keritinocytes, and neutrophil superoxide anion release by well known techniques.
as §1

Data set [3] relates to phorbol ester-induced mouse ear edema. The data set is described as follows: phorbol ester-induced mouse ear edema model. Format: in vivo. As to the method:
Formula I compounds also have been tested in vivo to determine their antiinflammatory activity. The model used for this testing is the well-known, widely accepted phorbol ester-induced mouse ear edema model wherein the efficacy of a test compound to reduce the edema induced by the phorbol ester is measured.

The subject of a further data set is MCF-7. The data set is described as follows: growth inhibition of cultured tumor cells (MCF-7). Format: cell-based. To be noted: Homo sapiens, MCF7, read-out: IC50 of Compounds in Cells, MCF-7. As to the method:
as §2, §1

For the next data set, the system named is NHEK. The data set is described as follows: growth inhibition of cultured keritinocytes (NHEK). Format: cell-based. To be noted: read-out: IC50 of Compounds in Cells, NHEK. As to the method:
as §2, §1

For data set [4], the system named is K562 cells. To be noted: previous studies, H. Osada et al. (1988); cited from earlier work.

Regarding `O=C(NC1C2CC(C3CCCC32)C1OC(=O)c1cc(O)c(C(=O)c2c(O)cccc2C(=O)O)c(O)c1)c1ccc(O)cc1` (stereo not drawn) [Example 21, 8-endo-[4-(2-Carboxy-6-hydroxybenzoyl)-3,5-dihydroxybenzoyl-oxy]-9-endo-(4-hydroxybenzamido)tricyclo[5.2.1.0 (2,6)]decane], the water solubility entry in data set [1] is recorded as “not water-soluble”.

Take `COC(=O)c1cccc(O)c1C(=O)c1c(O)cc(C(=O)OC2C3CCC(C3)C2NC(=O)c2ccc(O)cc2)cc1O` (stereo not drawn) [Example 16, anti-2-[4-(2-Methoxycarbonyl-6-hydroxybenzoyl)-3,5-dihydroxybenzoyloxy]-3-(4-hydroxybenzamido)bicyclo[2.2.1]heptane]: the values for the IC50 with K562 cells [2] and with NEUTROPHILS were 25 µM and 10 µM, respectively. Also, the “antiinflammatory activity: reduction of edema induced by phorbol ester” value (“antiinflammatory activity: reduction” below) in data set [3] is listed as “active”.

`O=C(N[C@@H]1c2ccccc2C[C@H]1OC(=O)c1cc(O)c(C(=O)c2c(O)cccc2C(=O)O)c(O)c1)c1ccc(O)cc1` (relative stereo) [Example 3, anti-1-(4-Hydroxybenzamido)-2-[3,5-dihydroxy-4-(2-carboxy-6-hydroxybenzoyl)benzoyloxy]indane]: the IC50 amounted to 71 µM in the data set with MCF-7 and 50 µM in the data set with NHEK. Moreover, the “antiinflammatory activity: reduction” value in data set [3] is “active”.

As for `O=C(N[C@H]1[C@H]2CC[C@H](C2)[C@H]1OC(=O)c1cc(O)c(C(=O)c2c(O)cccc2C(=O)O)c(O)c1)c1ccc(O)cc1` (relative stereo) [Example 12, syn-2-[4-(2-Carboxy-6-hydroxybenzoyl)-3,5-dihydroxybenzoyloxy]-3-(4-hydroxybenzamido)bicyclo[2.2.1]heptane], the “antiinflammatory activity: reduction” value in data set [3] is recorded as “active”.

Consider `CN[C@@H]1C[C@H]2O[C@@](C)([C@@H]1OC)n1c3ccccc3c3c4c(c5c6ccccc6n2c5c31)C(=O)NC4` [staurosporine], for which, in the data set with K562 cells [4], the phorbol ester-induced blebbing entry was “inhibits”.

For the compound `O=C(NC1C2CCC(C2)C1OC(=O)c1cc(O)c(C(=O)c2c(O)cccc2C(=O)O)c(O)c1)c1ccc(O)cc1` (stereo not drawn) [Example 13, anti-2-[4-(2-Carboxy-6-hydroxybenzoyl)-3,5-dihydroxybenzoyloxy]-3-(4-hydroxybenzamido)bicyclo[2.2.1]heptane], in data set [3], the “antiinflammatory activity: reduction” value is “active”.

On to `COC(=O)c1cccc(O)c1C(=O)c1c(O)cc(C(=O)O[C@@H]2Cc3ccccc3[C@H]2NC(=O)c2ccc(O)cc2)cc1O` (relative stereo) [Example 5], for which the IC50 in the data set with MCF-7 was 23 µM; in the data set with NHEK, 5 µM; with K562 cells [2], 50 µM. Moreover, the “antiinflammatory activity: reduction” value in data set [3] is reported as “active”.

On to `O=C(NC1C2CC(C3CCCC32)C1OC(=O)c1cc(O)c(C(=O)c2c(O)cccc2C(=O)O)c(O)c1)c1ccc(O)cc1` (stereo not drawn) [Example 20, 8-exo-[4-(2-Carboxy-6-hydroxybenzoyl)-3,5-dihydroxybenzoyloxy]-9-endo-(4-hydroxybenzamido)tricyclo[5.2.1.0 (2,6)]decane], for which the water solubility result in data set [1] was “not water-soluble”.

Take `COC(=O)c1cccc(O)c1C(=O)c1c(O)cc(C(=O)O[C@@H]2C3CCN(CC3)C[C@H]2NC(=O)c2ccc(O)cc2)cc1O` (relative stereo) [Example 8, anti-4-[4-(2-methoxycarbonyl-6-hydroxybenzoyl)-3,5-dihydroxybenzoyloxy]-3-(4-hydroxybenzamido)-1-azabicyclo[3.2.2]nonane, trifluoroacetic acid salt]: the IC50 in the data set with MCF-7 came out at 74 µM; in the data set with NHEK it was 92 µM; in the data set on K562 cells [2], 12.5 µM.

On to “7-[4-(2-Methoxycarbonyl-6-hydroxybenzoyl)-3,5-dihydroxybenzoyloxy]-2-(hydroxybenzamido)bicyclo[2.2.1]heptane [Example 14]”, for which, in the data set with NEUTROPHILS, the IC50 was 10 µM.

`O=C(N[C@@H]1c2ccccc2C[C@@H]1OC(=O)c1cc(O)c(C(=O)c2c(O)cccc2C(=O)O)c(O)c1)c1ccc(O)cc1` (relative stereo) [Example 4, syn-(4-Hydroxybenzamido)-2-[3,5-dihydroxy-4-(2-carboxy-6-hydroxybenzoyl)benzoyloxy]indane]: the IC50 is 2.1 to 4 µM in the data set with MCF-7 and 43 µM in the data set with NHEK.
